Measured values taken from patent US20110263539A1, “SHIP 1 MODULATOR COMPOUNDS” (THE UNIVERSITY OF BRITISH COLUMBIA, priority 2006, published 2011).

Legend:
J774.1a macrophage cells = test: Macrophage TNF-α production (Assay 2); format: cell-based; conditions: 10 μg/mL test compound, 100 ng/mL LPS, ELISA; also: key: a ‘+’ indicates a positive result for desired activity; a ‘−’ indicates a negative result for desired activity
Procedure: Assay 2) Macrophage TNF-α production. J774.1a macrophage cells were treated with 10 μg/mL of test compound dissolved in solvent (e.g. cyclodextran) for 40 minutes prior to the addition of 100 ng/mL LPS. Culture supernatants were collected after 2 hr and 5 hr for TNF-α determination by ELISA.

[1] = tested on: neutrophil myeloperoxidase (MPO) activity; test: Mouse acute cutaneous anaphylaxis model (Assay 5); format: in vivo, CD1 mice
Procedure: Assay 5) Mouse acute cutaneous anaphylaxis model. 6-8 week old CD1 mice
(§1) (University of British Columbia Animal Facility, Vancouver, BC) were sensitized to the hapten DNP by cutaneous application of 25 μL of 0.5% dinitrofluorobenzene (DNFB) (Sigma, Oakville, Ont) in acetone to the shaved abdomen of mice for two consecutive days. 24 hrs later, test substances (dissolved in 10 μL of 1:2 DMSO:MeOH) were painted on the right ear while the left ear received vehicle control. 30 min after drug application, DNFB was applied to both ears to induce mast cell degranulation. A 6 mm punch was taken from the ear and immediately frozen on dry ice for subsequent determination of neutrophil myeloperoxidase (MPO) activity.
as §1, with “Mouse acute cutaneous anaphylaxis model. 6-8 week old CD1 mice (University” for “(University”, “activity. Compound 100's ability to inhibit cutaneous anaphylaxis was assessed.” for “activity.”
Anaphylactic or allergic responses are mediated by allergen-induced degranulation of pre-sensitized mast cells. The mouse ear edema/cutaneous anaphylaxis model involves pre-sensitization of mice with the haptenizing agent dinitrofluorobenzene (DNFB). One week later the allergic reaction is elicited by painting DNFB onto the ears of the mice. The efficacy of potential anti-inflammatory compounds is tested by topical application of the test substance to one ear and comparing the resulting ear edema or inflammation of the two ears.

MM cell lines = test: In vitro Multiple Myeloma (MM) assay (Assay 7); format: cell-based; as to Assay Number 7: In vitro Multiple Myeloma (MM) assay: key: a ‘+’ indicates a positive result for desired activity; a ‘−’ indicates a negative result for desired activity
Procedure: Assay 7) In vitro Multiple Myeloma (MM) assay. The ability of SHIP activators to reduce tumor cell survival was assessed in MM cell lines treated with the test compound. The lines OPM1, OPM2, MM.1S and RPMI 8226 were plated at a density of 1×10^5 cells/mL in 200 μL of medium with various concentrations of the test compound, and viable cell numbers were determined on day 3 and day 5 by trypan blue exclusion. The lines RPMI 8226 and U266 were plated at a density of 1×10^6 cells/mL in 250 μL of medium with various concentrations of the test compound. At day 4, the medium of each culture was replaced by fresh medium containing the same concentration of test compound. At day 7, the viable cell number of each culture was determined by trypan blue exclusion.
MM cell lines were cultured in 96 well plates seeded with 3×10^4 cells suspended in 200 μL of medium along with various concentrations of test compound (and associated cyclodextran vehicle control), with LY294002 serving as a positive control in the experiments. After 24-48 hrs of culture, […] of [3H]-thymidine (GE Healthcare, Baie D'Urfe, Canada) being added for the final 8 hours. Cells were harvested and DNA associated radioactivity was measured via liquid scintillation counting using a Wallac Microbeta counter (Perkin-Elmer; Boston, Mass.).
The ability of SHIP activators to reduce tumor cell survival was assessed in multiple myeloma (MM) cell lines treated with Compound 100 or AQX-016A. The lines OPM1, OPM2, MM.1S and RPMI 8226 were plated at a density of 1×10^5 cells/mL in 200 μL of medium with various concentrations of Compound 100, and viable cell numbers were determined on day 3 and day 5 by trypan blue exclusion. The lines RPMI 8226 and U266 were plated at a density of 1×10^6 cells/mL in 250 μL of medium with various concentrations of AQX-016A. At day 4, the medium of each culture was replaced by fresh medium containing the same concentration of AQX-016A. At day 7, the viable cell number of each culture was determined by trypan blue exclusion. Experiments were performed in triplicate.
Proliferation (DNA synthesis) assays. Proliferation was measured by measuring incorporation of [^3H]-thymidine into cells. MM cell lines were cultured in 96 well plates seeded with 3×10^4 cells suspended in 200 μL, of medium along with various concentrations of Compound 100 or AQX-016A (and associated cyclodextran vehicle control), with LY294002 serving as a positive control in the indicated experiments. After 24-48 hrs of culture, 1 μCi of [^3H]-thymidine (GE Healthcare, Baie D'Urfe, Canada) being added for the final 8 hours. Plates were frozen, which also aided in cell lysis, to terminate the experiments. Cells were then harvested onto glass fibre filters using an automatic cell harvester (TomTech; Orange, Conn.) and DNA associated radioactivity was measured via liquid scintillation counting using a Wallac Microbeta counter (Perkin-Elmer; Boston, Mass.). Wells were set up in triplicate and data is expressed as mean+/−SEM.

[2] = tested on: luciferase expressing OPM2 cells; test: In vivo Multiple Myeloma (MM) assay (Assay 8); design: species or system Mice; conditions: 50 mg/kg every 3 days, subcutaneous oil depot
Procedure: Assay 8) In vivo Multiple Myeloma (MM) assay. Mice were inoculated with at two sites each with 3×10^6 luciferase expressing OPM2 cells suspended in 50 μL of growth medium and 50 μL of Matrigel basement membrane matrix (Becton Dickenson; Bedford, Mass.). Tumors were injected subcutaneously in the upper and lower flanks of the mice and allowed to establish for 2 weeks. After 2 weeks, a test compound or control vehicle was administered in a subcutaneous oil depot at a dose of 50 mg/kg every 3 days.
Tumors were measured using bioluminescence imaging on the Xenogen IVIS 200. Mice received intra-peritoneal injections of 200 μL of D-luciferin at 3.75 mg/mL in sterile PBS. Mice were then anesthetized with isofluorane and imaged 15 minutes post-injection of luciferin. Quantification of tumor size was performed using the Living Image™ software.
MM Xenograft murine model. Mice were inoculated with at two sites each with 3×10^6 luciferase expressing OPM2 cells suspended in 50 μL of growth medium and 50 μL of Matrigel basement membrane matrix (Becton Dickenson; Bedford, Mass.). Tumors were injected subcutaneously in the upper and lower flanks of the mice and allowed to establish for 2 weeks. […]
Tumors were measured using bioluminescence imaging on the Xenogen IVIS 200. […] Quantification of tumor size was performed using the Living Image™ software. […]

Structure (SMILES): Cc1cc(O)cc2c1[C@]1(C)CCC3C(C)(C)CCC[C@]3(C)[C@H]1C2 (stereo partly drawn) [Compound 100]
- Assay Number 2: Macrophage TNF-α production (J774.1a macrophage cells): +
- Assay Number 5: Mouse acute cutaneous anaphylaxis model ([1]; topical on ear, DNFB): +
- allergen (DNFB)-induced inflammation ([1]; topically applied vs vehicle control-treated ear): dramatically inhibited
- Assay Number 7: In vitro Multiple Myeloma (MM) assay (MM cell lines): +
- MM proliferation (MM cell lines; viable cell numbers, trypan blue exclusion): inhibits MM proliferation at lower concentrations than AQX-016A
- Assay Number 8: In vivo Multiple Myeloma (MM) assay [2]: +
